Patent US20260297085A1, “1 H-PYRROLO[2,3-B]PYRIDIN-4-YL]-2-OXOPYRROLIDINE-3-CARBONITRILE DERIVATIVES AS TYROSINE KINASE 2 (TYK2) INHIBITORS FOR THE TREATMENT OF INFLAMMATORY DISEASES” (BIOGEN MA INC., priority 2023, published 2026)
Counter-ions that a name gives are not always drawn.

Experiments:
[1] = molecular target: T1, human TYK2 kinase domain (JH1) (Homo sapiens, UniProt P29597); assay: JH1 biochemical assay for TYK2 (ADP-Glo kinase assay, recombinant JH1 catalytic domain, JAK3-974 peptide, 10 μM ATP)
T1 construct: recombinantly generated catalytic kinase (also known as JH1) domain of human JAK1, JAK2, JAK3 and TYK2
T1 sequence (P29597 897-1176 limits assumed): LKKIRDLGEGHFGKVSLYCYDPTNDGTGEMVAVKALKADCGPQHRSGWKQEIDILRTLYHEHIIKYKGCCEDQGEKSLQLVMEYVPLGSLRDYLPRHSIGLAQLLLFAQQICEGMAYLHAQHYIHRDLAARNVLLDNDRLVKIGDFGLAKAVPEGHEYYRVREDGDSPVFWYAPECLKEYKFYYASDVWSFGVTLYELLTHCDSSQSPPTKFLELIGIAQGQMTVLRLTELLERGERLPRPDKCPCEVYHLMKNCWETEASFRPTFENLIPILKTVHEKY
Outline: (§1)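 Luminescent ADP read-out after residual ATP depletion, 100 min reaction. Kinase domain concentrations were 4 nM (JAK1), 0.2 nM (JAK2), 0.3 nM (JAK3) and 2 nM (TYK2), each with 50 μM peptide. IC50 values came from 4-parameter logistic fits over 11 points, 3-fold steps, top 10 μM or 1 μM.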

[2] = molecular target: T2, human JAK1 kinase domain (JH1) (Homo sapiens, UniProt P23458); assay: JH1 biochemical assay for JAK1 (ADP-Glo kinase assay, recombinant JH1 catalytic domain, JAK3-342 peptide, 35 μM ATP)
T2 construct: recombinantly generated catalytic kinase (also known as JH1) domain of human JAK1, JAK2, JAK3 and TYK2
Outline: as §1

[3] = molecular target: T3, human JAK2 kinase domain (JH1) (Homo sapiens, UniProt O60674); assay: JH1 biochemical assay for JAK2 (ADP-Glo kinase assay, recombinant JH1 catalytic domain, JAK3-974 peptide, 15 μM ATP)
T3 construct: recombinantly generated catalytic kinase (also known as JH1) domain of human JAK1, JAK2, JAK3 and TYK2
Outline: as §1

[4] = molecular target: T4, human JAK3 kinase domain (JH1) (Homo sapiens, UniProt P52333); assay: JH1 biochemical assay for JAK3 (ADP-Glo kinase assay, recombinant JH1 catalytic domain, JAK3-974 peptide, 4 μM ATP)
T4 construct: recombinantly generated catalytic kinase (also known as JH1) domain of human JAK1, JAK2, JAK3 and TYK2
Outline: as §1

[5] = molecular target: Tyk2 kinase activity on STAT4 in NK92 cells (Homo sapiens, UniProt P29597); assay: pSTAT4 cell assay (MSD; NK92 cells, 30 ng/mL IL2 stimulation); type: cell-based; details: 30 ng/mL IL2, 15 minutes
Outline: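 NK92, serum-starved; cpd 1 hr, 10-pt 4-fold from 10 μM; IL2 30 ng/mL 15 min; lyse; MSD with anti-STAT4 Abs; IC50 by 4-PL fit.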

[6] = molecular target: JAK2 kinase activity on STAT5 in TF1 cells (Homo sapiens, UniProt O60674); assay: pSTAT5 cell assay (MSD; TF1 cells, 30 ng/mL IL-3 stimulation); type: cell-based; details: 30 ng/mL IL-3, 15 minutes
Outline: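 Serum-starved TF1 cells with native JAK2/STAT5 were pretreated 1 h with compound (10-point four-fold dilutions from 10 μM), then stimulated 15 min with 30 ng/mL IL-3. pSTAT5 in lysates quantified by MSD immunoassay; normalized percent activity fitted to a 4-parameter logistic curve for IC50.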

[7] = molecular target: JAK1 kinase activity on STAT3 in TF1 cells (Homo sapiens, UniProt P23458); assay: pSTAT3 cell assay (MSD; TF1 cells, 30 ng/mL IL-6 stimulation); type: cell-based; details: 30 ng/mL IL-6, 15 minutes
Outline: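 Readout is pSTAT3 in lysates, quantified on an MSD plate assay using anti-STAT3 antibodies. Before lysis, TF1 cells had been serum-starved, exposed to compound for 1 hour across ten four-fold dilutions starting at 10 μM, and given IL-6 for 15 minutes.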

JAK1 kinase activity on STAT3 in TF1 cells, sequence (P23458 whole entry): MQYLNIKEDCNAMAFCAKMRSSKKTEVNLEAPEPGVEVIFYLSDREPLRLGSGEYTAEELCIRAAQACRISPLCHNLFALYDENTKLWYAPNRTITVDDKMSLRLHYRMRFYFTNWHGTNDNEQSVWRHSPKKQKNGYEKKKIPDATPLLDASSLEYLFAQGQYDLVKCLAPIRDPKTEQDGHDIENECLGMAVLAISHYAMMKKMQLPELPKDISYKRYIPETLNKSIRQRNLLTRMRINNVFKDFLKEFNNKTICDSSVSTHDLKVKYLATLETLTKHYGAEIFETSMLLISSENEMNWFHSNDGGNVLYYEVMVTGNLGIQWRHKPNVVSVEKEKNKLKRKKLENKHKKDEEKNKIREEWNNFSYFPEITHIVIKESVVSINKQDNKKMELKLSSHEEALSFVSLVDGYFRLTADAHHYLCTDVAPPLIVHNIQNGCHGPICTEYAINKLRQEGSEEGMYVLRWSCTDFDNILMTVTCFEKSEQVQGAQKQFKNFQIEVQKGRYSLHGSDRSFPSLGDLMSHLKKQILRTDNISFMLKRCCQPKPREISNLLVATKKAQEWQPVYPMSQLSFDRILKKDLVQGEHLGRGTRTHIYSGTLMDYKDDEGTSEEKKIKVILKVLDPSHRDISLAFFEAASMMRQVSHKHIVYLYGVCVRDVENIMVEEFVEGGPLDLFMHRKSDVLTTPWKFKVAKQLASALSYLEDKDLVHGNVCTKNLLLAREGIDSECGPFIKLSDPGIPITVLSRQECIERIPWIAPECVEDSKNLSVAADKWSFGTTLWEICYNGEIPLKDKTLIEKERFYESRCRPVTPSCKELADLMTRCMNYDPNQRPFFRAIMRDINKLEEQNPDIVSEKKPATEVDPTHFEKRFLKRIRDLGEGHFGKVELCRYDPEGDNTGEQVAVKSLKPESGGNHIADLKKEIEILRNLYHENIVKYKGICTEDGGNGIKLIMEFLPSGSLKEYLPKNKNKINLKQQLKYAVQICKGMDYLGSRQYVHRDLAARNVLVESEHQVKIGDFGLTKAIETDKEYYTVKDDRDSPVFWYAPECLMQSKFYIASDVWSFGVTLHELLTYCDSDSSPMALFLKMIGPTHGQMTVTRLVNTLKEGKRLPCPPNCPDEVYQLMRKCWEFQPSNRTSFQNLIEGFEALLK
Tyk2 kinase activity on STAT4 in NK92 cells, sequence (P29597 whole entry): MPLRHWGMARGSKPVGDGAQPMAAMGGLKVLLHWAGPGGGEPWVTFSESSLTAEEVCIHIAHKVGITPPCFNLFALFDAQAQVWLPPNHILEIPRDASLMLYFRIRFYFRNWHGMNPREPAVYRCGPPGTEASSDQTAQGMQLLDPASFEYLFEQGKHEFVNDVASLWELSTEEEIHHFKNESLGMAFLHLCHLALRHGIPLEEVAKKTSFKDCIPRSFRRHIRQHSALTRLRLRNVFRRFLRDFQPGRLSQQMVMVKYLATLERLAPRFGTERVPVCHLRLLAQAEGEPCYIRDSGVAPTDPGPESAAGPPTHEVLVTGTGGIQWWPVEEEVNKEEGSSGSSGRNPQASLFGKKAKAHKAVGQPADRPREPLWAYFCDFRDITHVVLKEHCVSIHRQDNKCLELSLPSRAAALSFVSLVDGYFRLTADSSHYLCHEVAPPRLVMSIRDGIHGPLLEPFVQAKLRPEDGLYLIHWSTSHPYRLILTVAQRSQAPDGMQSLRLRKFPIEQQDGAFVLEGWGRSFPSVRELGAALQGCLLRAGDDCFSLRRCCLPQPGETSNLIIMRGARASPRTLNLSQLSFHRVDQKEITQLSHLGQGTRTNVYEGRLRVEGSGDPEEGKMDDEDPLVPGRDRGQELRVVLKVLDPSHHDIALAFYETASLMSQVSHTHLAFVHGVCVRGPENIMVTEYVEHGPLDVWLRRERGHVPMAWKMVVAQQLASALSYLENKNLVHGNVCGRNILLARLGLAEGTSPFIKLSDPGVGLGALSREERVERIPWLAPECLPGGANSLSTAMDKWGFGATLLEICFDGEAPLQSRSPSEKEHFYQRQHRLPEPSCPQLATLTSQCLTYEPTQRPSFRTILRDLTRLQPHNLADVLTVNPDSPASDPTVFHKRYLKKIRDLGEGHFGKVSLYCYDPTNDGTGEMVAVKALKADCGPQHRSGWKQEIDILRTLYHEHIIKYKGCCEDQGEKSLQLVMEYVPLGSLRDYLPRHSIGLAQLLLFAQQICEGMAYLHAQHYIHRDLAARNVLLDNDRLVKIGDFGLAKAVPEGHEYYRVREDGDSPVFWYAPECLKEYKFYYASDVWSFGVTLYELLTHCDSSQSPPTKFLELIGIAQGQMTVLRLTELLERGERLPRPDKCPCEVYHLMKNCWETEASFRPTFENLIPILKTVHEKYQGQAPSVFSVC
T4 sequence (P52333 822-1111 limits assumed): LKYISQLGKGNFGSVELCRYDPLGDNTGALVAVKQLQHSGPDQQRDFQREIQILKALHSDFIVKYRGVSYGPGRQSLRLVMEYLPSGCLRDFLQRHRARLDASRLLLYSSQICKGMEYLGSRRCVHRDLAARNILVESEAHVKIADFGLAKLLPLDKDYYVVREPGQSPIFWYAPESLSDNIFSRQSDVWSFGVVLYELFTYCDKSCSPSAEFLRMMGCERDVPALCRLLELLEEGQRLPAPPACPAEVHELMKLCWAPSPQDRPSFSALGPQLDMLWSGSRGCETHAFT
JAK2 kinase activity on STAT5 in TF1 cells, sequence (O60674 whole entry): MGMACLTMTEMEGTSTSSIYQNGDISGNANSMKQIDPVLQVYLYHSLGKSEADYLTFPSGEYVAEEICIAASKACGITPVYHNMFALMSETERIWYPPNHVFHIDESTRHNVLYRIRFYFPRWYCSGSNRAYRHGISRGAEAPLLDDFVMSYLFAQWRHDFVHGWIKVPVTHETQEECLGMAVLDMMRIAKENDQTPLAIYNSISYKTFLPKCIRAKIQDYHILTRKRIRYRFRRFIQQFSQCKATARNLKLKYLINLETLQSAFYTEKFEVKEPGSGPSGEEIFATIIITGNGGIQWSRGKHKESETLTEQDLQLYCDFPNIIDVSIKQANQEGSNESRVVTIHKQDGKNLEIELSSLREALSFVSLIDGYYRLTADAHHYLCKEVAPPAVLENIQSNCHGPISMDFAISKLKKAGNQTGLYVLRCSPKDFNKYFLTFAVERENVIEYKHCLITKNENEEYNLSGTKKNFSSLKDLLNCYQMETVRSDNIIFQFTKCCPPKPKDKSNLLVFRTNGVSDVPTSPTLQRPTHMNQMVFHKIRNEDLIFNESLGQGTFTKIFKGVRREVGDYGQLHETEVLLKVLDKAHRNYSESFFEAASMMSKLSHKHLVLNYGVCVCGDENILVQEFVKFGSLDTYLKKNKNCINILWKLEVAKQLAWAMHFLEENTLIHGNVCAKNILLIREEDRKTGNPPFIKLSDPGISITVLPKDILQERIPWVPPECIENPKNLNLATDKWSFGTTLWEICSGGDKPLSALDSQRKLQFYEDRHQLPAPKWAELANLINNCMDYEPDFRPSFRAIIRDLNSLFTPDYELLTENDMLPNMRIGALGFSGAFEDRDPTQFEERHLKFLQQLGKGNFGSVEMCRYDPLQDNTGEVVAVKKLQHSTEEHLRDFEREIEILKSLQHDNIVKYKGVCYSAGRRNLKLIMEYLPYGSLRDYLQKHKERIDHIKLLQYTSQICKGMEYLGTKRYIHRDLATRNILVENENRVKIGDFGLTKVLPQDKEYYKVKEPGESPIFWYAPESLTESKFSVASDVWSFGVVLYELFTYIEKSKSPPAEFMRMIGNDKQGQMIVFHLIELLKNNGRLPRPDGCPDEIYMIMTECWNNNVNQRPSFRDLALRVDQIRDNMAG
T3 sequence (O60674 849-1124 limits assumed): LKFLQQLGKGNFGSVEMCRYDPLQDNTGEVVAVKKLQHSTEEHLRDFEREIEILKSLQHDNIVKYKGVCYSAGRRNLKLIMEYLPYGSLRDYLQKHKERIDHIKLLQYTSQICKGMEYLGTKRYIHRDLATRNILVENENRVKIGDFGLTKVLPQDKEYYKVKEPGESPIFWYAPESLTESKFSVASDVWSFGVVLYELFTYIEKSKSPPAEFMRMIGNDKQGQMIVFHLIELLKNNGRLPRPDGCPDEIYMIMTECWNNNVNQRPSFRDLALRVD
T2 sequence (P23458 875-1153 limits assumed): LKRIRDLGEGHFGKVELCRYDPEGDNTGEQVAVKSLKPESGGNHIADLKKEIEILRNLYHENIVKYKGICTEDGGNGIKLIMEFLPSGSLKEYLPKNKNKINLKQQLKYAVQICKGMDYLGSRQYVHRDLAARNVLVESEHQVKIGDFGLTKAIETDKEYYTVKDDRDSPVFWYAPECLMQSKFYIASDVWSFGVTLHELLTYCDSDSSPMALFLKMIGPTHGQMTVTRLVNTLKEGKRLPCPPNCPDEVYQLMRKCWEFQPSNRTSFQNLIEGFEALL

Row | SMILES | IC50 ([1]; JH1 kinase domain, ADP-Glo) [µM] | IC50 ([2]; JH1 kinase domain, ADP-Glo) [µM] | IC50 ([3]; JH1 kinase domain, ADP-Glo) [µM] | IC50 ([4]; JH1 kinase domain, ADP-Glo) [µM] | IC50 [5] [µM] | IC50 [6] [µM] | IC50 [7] [µM] | IC50 ([1]; TYK2 JH1, ADP-Glo) [µM] | IC50 ([2]; JAK1 JH1, ADP-Glo) [µM] | IC50 ([3]; JAK2 JH1, ADP-Glo) [µM] | IC50 ([4]; JAK3 JH1, ADP-Glo) [µM]
1 | N#C[C@@]1(C2CC2)CCN(c2ccnn3cc(-c4cnn(C(F)F)c4)cc23)C1=O [Example 10, (S)-3-cyclopropyl-1-(6-(1-(difluoromethyl)-1H-pyrazol-4-yl)pyrrolo[1,2-b]pyridazin-4-yl)-2-oxopyrrolidine-3-carbonitrile] | 0.005 to 0.02 | 0.1 to 1 | 0.1 to 1 | 0.1 to 1 | > 0.1 | > 10 | 1 to 5 | – | – | – | –
2 | C[C@@H]1CN(c2ccnn3cc(-c4cncc(F)c4)cc23)C(=O)[C@]1(C#N)C1CC1 [Example 84, (3R,4S)-3-cyclopropyl-1-(6-(5-fluoropyridin-3-yl)pyrrolo[1,2-b]pyridazin-4-yl)-4-methyl-2-oxopyrrolidine-3-carbonitrile] | 0.005 to 0.02 | 0.1 to 1 | 1 to 5 | 0.1 to 1 | > 0.1 | > 10 | 5 to 10 | – | – | – | –
3 | C[C@@H]1CN(c2ccnn3cc(-c4cnn([C@H]5C[C@@H](C#N)C5)c4)cc23)C(=O)[C@]1(C#N)C1CC1 [Example 329, (3R,4S)-1-(6-(1-((1s,3S)-3-cyanocyclobutyl)-1H-pyrazol-4-yl)pyrrolo[1,2-b]pyridazin-4-yl)-3-cyclopropyl-4-methyl-2-oxopyrrolidine-3-carbonitrile] | – | – | – | – | 0.02 to 0.05 | 0.1 to 1 | 0.1 to 1 | < 0.005 | < 0.1 | < 0.1 | < 0.1
4 | C[C@@H]1CN(c2nc(-c3cnn(C)c3)cn3ncc(F)c23)C(=O)[C@]1(C#N)C1CC1 [Example 187, (3R,4S)-3-cyclopropyl-1-(3-fluoro-6-(1-methyl-1H-pyrazol-4-yl)pyrazolo[1,5-a]pyrazin-4-yl)-4-methyl-2-oxopyrrolidine-3-carbonitrile] | < 0.005 | < 0.1 | 0.1 to 1 | < 0.1 | 0.05 to 0.1 | 1 to 5 | 1 to 5 | – | – | – | –
5 | C[C@@H]1CN(c2nc(-c3cnc4c(c3)CCN4)cn3nccc23)C(=O)[C@]1(C#N)C1CC1 [Example 215, (3R,4S)-3-cyclopropyl-1-(6-(2,3-dihydro-1H-pyrrolo[2,3-b]pyridin-5-yl)pyrazolo[1,5-a]pyrazin-4-yl)-4-methyl-2-oxopyrrolidine-3-carbonitrile] | < 0.005 | < 0.1 | < 0.1 | < 0.1 | 0.05 to 0.1 | 0.1 to 1 | 0.1 to 1 | – | – | – | –
6 | C[C@@H]1CN(c2cc(-c3cnn(C)c3)cc3ncsc23)C(=O)[C@]1(C#N)C1CC1 [Example 350, (3R,4S)-3-cyclopropyl-4-methyl-1-(5-(1-methyl-1H-pyrazol-4-yl)benzo[d]thiazol-7-yl)-2-oxopyrrolidine-3-carbonitrile] | – | – | – | – | 0.05 to 0.1 | 1 to 5 | 0.1 to 1 | < 0.005 | < 0.1 | 0.1 to 1 | < 0.1
7 | C[C@@H]1CN(c2nc(-c3cnn(C45CC(C#N)(C4)C5)c3)cn3ncc(F)c23)C(=O)[C@]1(C#N)C1CC1 [Example 297, (3R,4S)-1-(6-(1-(3-cyanobicyclo[1.1.1]pentan-1-yl)-1H-pyrazol-4-yl)-3-fluoropyrazolo[1,5-a]pyrazin-4-yl)-3-cyclopropyl-4-methyl-2-oxopyrrolidine-3-carbonitrile] | – | – | – | – | > 0.1 | 1 to 5 | 1 to 5 | < 0.005 | < 0.1 | < 0.1 | < 0.1
8 | Cc1nn(C)cc1-c1cn2nccc2c(N2C[C@@H](C)[C@@](C#N)(C3CC3)C2=O)n1 [Example 208, (3R,4S)-3-cyclopropyl-1-(6-(1,3-dimethyl-1H-pyrazol-4-yl)pyrazolo[1,5-a]pyrazin-4-yl)-4-methyl-2-oxopyrrolidine-3-carbonitrile] | < 0.005 | < 0.1 | < 0.1 | < 0.1 | 0.05 to 0.1 | 1 to 5 | 1 to 5 | – | – | – | –
9 | C[C@@H]1CN(c2nn(-c3cnn(C4COC4)c3)c3cnccc23)C(=O)[C@]1(C#N)C1CC1 [Example 278, (3R,4S)-3-cyclopropyl-4-methyl-1-(1-(1-(oxetan-3-yl)-1H-pyrazol-4-yl)-1H-pyrazolo[3,4-c]pyridin-3-yl)-2-oxopyrrolidine-3-carbonitrile] | – | – | – | – | > 0.1 | 5 to 10 | 5 to 10 | < 0.005 | 0.1 to 1 | 0.1 to 1 | 0.1 to 1
10 | Cn1cc(-c2cc3c(N4CC[C@@](C#N)(C5CC5)C4=O)ccnc3[nH]2)cn1 [Example 4, (S)-3-cyclopropyl-1-(2-(1-methyl-1H-pyrazol-4-yl)-1H-pyrrolo[2,3-b]pyridin-4-yl)-2-oxopyrrolidine-3-carbonitrile] | < 0.005 | < 0.1 | < 0.1 | < 0.1 | 0.02 to 0.05 | 0.1 to 1 | 0.1 to 1 | – | – | – | –
11 | C[C@@H]1CN(c2nc(-c3cncc(O)c3)cn3nccc23)C(=O)[C@]1(C#N)C1CC1 [Example 258, (3R,4S)-3-cyclopropyl-1-(6-(5-hydroxypyridin-3-yl)pyrazolo[1,5-a]pyrazin-4-yl)-4-methyl-2-oxopyrrolidine-3-carbonitrile trifluoroacetate] | – | – | – | – | > 0.1 | > 10 | 1 to 5 | 0.005 to 0.02 | < 0.1 | 0.1 to 1 | < 0.1
12 | CCn1cc(-c2cn3ncc(F)c3c(N3C[C@@H](C)[C@@](C#N)(C4CC4)C3=O)n2)cn1 [Example 188, (3R,4S)-3-cyclopropyl-1-(6-(1-ethyl-1H-pyrazol-4-yl)-3-fluoropyrazolo[1,5-a]pyrazin-4-yl)-4-methyl-2-oxopyrrolidine-3-carbonitrile] | < 0.005 | < 0.1 | < 0.1 | < 0.1 | 0.02 to 0.05 | 1 to 5 | 0.1 to 1 | – | – | – | –
13 | Cc1cncc(-c2cc3c(N4C[C@@H](C)[C@@](C#N)(C5CC5)C4=O)ccnn3c2)c1 [Example 71, (3R,4S)-3-cyclopropyl-4-methyl-1-(6-(5-methylpyridin-3-yl)pyrrolo[1,2-b]pyridazin-4-yl)-2-oxopyrrolidine-3-carbonitrile] | 0.005 to 0.02 | 0.1 to 1 | 0.1 to 1 | 0.1 to 1 | > 0.1 | > 10 | 1 to 5 | – | – | – | –
14 | C[C@@H]1CN(c2ccnn3cc(-c4cnn([C@H]5C[C@@](F)(C#N)C5)c4)cc23)C(=O)[C@]1(C#N)C1CC1 [Example 326, (3R,4S)-1-(6-(1-((1r,3R)-3-cyano-3-fluorocyclobutyl)-1H-pyrazol-4-yl)pyrrolo[1,2-b]pyridazin-4-yl)-3-cyclopropyl-4-methyl-2-oxopyrrolidine-3-carbonitrile] | – | – | – | – | > 0.1 | 1 to 5 | 1 to 5 | < 0.005 | < 0.1 | < 0.1 | < 0.1
15 | C[C@@H]1CN(c2ncnc3[nH]c(-c4cnn(C)c4)cc23)C(=O)[C@]1(C#N)C1CC1 [Example 6, (3R,4S)-3-cyclopropyl-4-methyl-1-(6-(1-methyl-1H-pyrazol-4-yl)-7H-pyrrolo[2,3-d]pyrimidin-4-yl)-2-oxopyrrolidine-3-carbonitrile] | 0.05 to 0.1 | 1 to 5 | 1 to 5 | 1 to 5 | > 0.1 | > 10 | > 10 | – | – | – | –
16 | C[C@@H]1CN(c2ccnn3cc(-c4cc5ccccn5n4)cc23)C(=O)[C@]1(C#N)C1CC1 [Example 104, (3R,4S)-3-cyclopropyl-4-methyl-2-oxo-1-(6-(pyrazolo[1,5-a]pyridin-2-yl)pyrrolo[1,2-b]pyridazin-4-yl)pyrrolidine-3-carbonitrile trifluoroacetate] | < 0.005 | 0.1 to 1 | 0.1 to 1 | 0.1 to 1 | > 0.1 | 5 to 10 | 1 to 5 | – | – | – | –
